According to patent publication US12172967B1, “3-(4,5-bis(4-bromophenyl)-2-(4-chlorophenyl)-1H-imidazol-1-yl)propanoic acid as an antimicrobial compound” (KING FAISAL UNIVERSITY, priority 2023, dated 2024):

How the values were obtained:
Assay type in all cases: cell-based
Bacillus cereus = assay: agar plate disc-diffusion, antibacterial, Bacillus cereus; conditions: nutrient agar, 37° C., 48 h
Method: (§1) The agar plate disc-diffusion method was applied. […] The discs were then placed onto the surface of agar plates (nutrient agar for bacteria and Sabouraud's dextrose agar for fungi) seeded with the test organism. Each plate contained 15 mL of the agar medium, previously seeded with 0.2 mL of the broth culture of each organism pregrown for 18 h. The plates were incubated at 37° C. for 48 h, and 72 h for fungi. The inhibition zones was measured in mm. Discs impregnated with DMSO were used as a control, and its inhibition zone was subtracted from the tested compound actual inhibition zone.

Staphylococcus aureus = assay: agar plate disc-diffusion, antibacterial, Staphylococcus aureus; conditions: nutrient agar, 37° C., 48 h
Method: as §1

Pseudomonas aeruginosa = assay: agar plate disc-diffusion, antibacterial, Pseudomonas aeruginosa; conditions: nutrient agar, 37° C., 48 h
Method: as §1

Escherichia coli = assay: agar plate disc-diffusion, antibacterial, Escherichia coli; conditions: nutrient agar, 37° C., 48 h
Method: as §1

Aspergillus flavus = assay: agar plate disc-diffusion, antifungal, Aspergillus flavus; conditions: Sabouraud's dextrose agar, 37° C., 72 h
Method: as §1

[1] = system: Chrysosporium keratinophilum; assay: agar plate disc-diffusion, antifungal, Chrysosporium keratinophilum; conditions: Sabouraud's dextrose agar, 37° C., 72 h
Method: as §1

[2] = A = concentration of comp. = 10,000 μL
[3] = B = concentration of comp. = 30,000 μL
[4] = C = concentration of comp. = 50,000 μL

Compound: O=C(O)CCn1c(-c2ccc(Cl)cc2)nc(-c2ccc(Br)cc2)c1-c1ccc(Br)cc1 [V, 3-(4,5-bis(4-bromophenyl)-2-(4-chlorophenyl)-1H-imidazol-1-yl)propanoic acid]
- inhibition zone, Bacillus Cereus, A (Bacillus cereus; [2]): 19 mm
- inhibition zone, Bacillus Cereus, B (Bacillus cereus; [3]): 21 mm
- inhibition zone, Bacillus Cereus, C (Bacillus cereus; [4]): 29 mm
- inhibition zone, Staphylococcus aureus, A (Staphylococcus aureus; [2]): 17 mm
- inhibition zone, Staphylococcus aureus, B (Staphylococcus aureus; [3]): 19 mm
- inhibition zone, Staphylococcus aureus, C (Staphylococcus aureus; [4]): 26 mm
- inhibition zone, Pseudomonas aeruginosa, A (Pseudomonas aeruginosa; [2]): 25 mm
- inhibition zone, Pseudomonas aeruginosa, B (Pseudomonas aeruginosa; [3]): 27 mm
- inhibition zone, Pseudomonas aeruginosa, C (Pseudomonas aeruginosa; [4]): 41 mm
- inhibition zone, Escherichia coli, A (Escherichia coli; [2]): 28 mm
- inhibition zone, Escherichia coli, B (Escherichia coli; [3]): 37 mm
- inhibition zone, Escherichia coli, C (Escherichia coli; [4]): 51 mm
- inhibition zone, Aspergillus flavus, A (Aspergillus flavus; [2]): 23 mm
- inhibition zone, Aspergillus flavus, B (Aspergillus flavus; [3]): 27 mm
- inhibition zone, Aspergillus flavus, C (Aspergillus flavus; [4]): 36 mm
- inhibition zone, Chrysosporium keratinophilum, A [1, 2]: 24 mm
- inhibition zone, Chrysosporium keratinophilum, B [1, 3]: 26 mm
- inhibition zone, Chrysosporium keratinophilum, C [1, 4]: 47 mm
